Data from PMC5118709, “Identification of Polo-like kinase 1 interaction inhibitors using a novel cell-based assay” (Scientific Reports, 2016).
Where “and” joins values, the source holds several entries; their conditions need not be identical. Identical values can stand only once. Entries after “also recorded” stand apart in the source; their conditions may differ.

Tests used:
[1] = target: GST-PBD367-603 of Plk1 (Homo sapiens, UniProt P53350); test: fluorescence polarization assay PBD-phosphopeptide
Chain of GST-PBD367-603 of Plk1 (P53350 367-603): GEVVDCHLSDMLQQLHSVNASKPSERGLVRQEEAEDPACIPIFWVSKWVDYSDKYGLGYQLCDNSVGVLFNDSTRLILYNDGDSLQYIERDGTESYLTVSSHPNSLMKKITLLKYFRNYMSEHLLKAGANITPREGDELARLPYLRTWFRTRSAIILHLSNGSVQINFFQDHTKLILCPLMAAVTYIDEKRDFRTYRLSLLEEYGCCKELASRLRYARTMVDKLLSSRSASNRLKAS
Text: In this assay, an optimal phosphopeptide for PBD binding is coupled with a FITC fluorophore and its binding to purified recombinant PBD of Plk1 is monitored by the change in polarization of incident light.

[2] = reaction with amino-protected amino acids (LC-MS); settings: room temperature
Experimental: Vinyl sulfones are reactive species that can alkylate substrates as a result of a nucleophilic attack on the distal carbon of the vinyl group. To evaluate the potential of Cpd 161 (vinyl sulfone) to react with proteins, we tested its reaction with nucleophilic amino acid side chains groups. […] To test whether Cpd 161 could react covalently with the PBD, we incubated them together and examined the molecular mass of the protein by SDS-PAGE (Fig. 7). […] Consistent with this idea, the extent of the shift depended on the concentration of Cpd 161 used (Fig. 7B) and also on the incubation time (Fig. 7C).
To a stirred solution of electrophile (0.02 mmol) and amino acid (1- 1.5eq) in DMF (0.3 ml) were added a few drops of a diluted aqueous solution of sodium bicarbonate. The reaction was monitored using an Agilent 6120 Quadrupole LC/MS system (Agilent Technologies). In all cases, the molecular ion of the product was observed.

[3] = target: T1, His-PBD326-603 (Homo sapiens, UniProt P53350); test: covalent reaction with the PBD by SDS-PAGE; design: His-PBD326-603 was expressed in E.coli BL21; made in house; host or cells: E. coli BL21; settings: 2.5 mM, 3-4 h
T1 sequence (P53350 326-603): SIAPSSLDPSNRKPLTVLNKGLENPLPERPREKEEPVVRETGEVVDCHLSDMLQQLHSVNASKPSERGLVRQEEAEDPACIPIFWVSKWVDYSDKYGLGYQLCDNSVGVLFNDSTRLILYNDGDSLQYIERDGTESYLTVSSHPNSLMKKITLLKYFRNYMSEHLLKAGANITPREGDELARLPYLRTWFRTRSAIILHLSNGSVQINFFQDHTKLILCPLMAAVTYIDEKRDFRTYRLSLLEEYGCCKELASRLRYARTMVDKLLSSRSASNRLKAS
Experimental: Vinyl sulfones are reactive species that can alkylate substrates as a result of a nucleophilic attack on the distal carbon of the vinyl group.
Membranes were blocked with TBS-Tween 0.1% containing 5% of dry milk powder, then incubated with anti-Plk1 (F-8; Santa Cruz Biotechnologies Inc.) or with a 6x-His epitope tag antibody (Invitrogen; gift from Gregory Emery). HRP-conjugated goat anti-mouse IgG (Jackson ImmunoResearch Laboratories inc.) was used and TBS-Tween 0.1% was used for the washes before and after the secondary antibody. […] Gels were imaged using a ChemiDoc MP system (BioRad).

[4] = target: T1, His-PBD326-603; test: alkylation sites on the PBD by LC-MS/MS
Experimental: Proteins were precipitated using acetone and resuspended in 100 μl. Sample reduction was performed by adding 50 μl of 5 mM TCEP in 50 mM ammonium bicarbonate. Samples were then added 50 μl of chloroacetamide 50 mM with ammonium bicarbonate 50 mM to protect exposed cysteine residues. One microgram of trypsin was added and the digestion was performed for 8 h at 37 °C. […] Each full MS spectrum acquired with a 70,000 resolution was followed by 12 MS/MS spectra, where the 12 most abundant multiply charged ions were selected for MS/MS sequencing. Peptides were identified using Peaks 8.0 (Bioinformatics Solution Inc.) and peptide sequences were blasted against the Human Uniprot database. Tolerance was set at 10 ppm for precursor and 0.01 Da for fragment ions during data processing. For the post-translational modification of proteins, occurrence of carbamidomethylation (C), oxidation (M), deamidation (NQ) was considered as well as addition of TQ (C, K), Poloxin (K, C, H), and vinyl sulfone (C, H, K) when needed.

[5] = target: PBD of Plk1 (Homo sapiens, UniProt P53350); test: fluorescence polarization assay PBD-Map peptide; assay type: binding
Chain of PBD of Plk1 (P53350 367-603 limits assumed): as the sequence (P53350 367-603) above
Experimental: The FP buffer was composed of 10 mM Tris pH 8.0, 50 mM NaCl, 1 mM EDTA, 20% glycerol and 0.1% NP-40. The peptide (final concentration 10 nM) was always added to the wells of non-binding, black, 384-well plates, 1 hour after the addition of the protein with the buffer (+/− treatment, 10% DMSO). […] EC65s were used to perform the competitive assays with the non-labeled peptides and with the inhibitors. FP Inhibition was calculated with the formula: 100 − [((mPsample − mPfree peptide)\(mPDMSO − mPfree peptide)) × 100]. […] (Map peptide), and corresponding non-labeled peptides are identical but without FITC in N-terminal. […] Inhibition curves were fitted with GraphPad (Prism software).

[6] = target: Plk1-Map interaction (Homo sapiens, UniProt P53350); test: LUMIER co-immunoprecipitation assay Plk1-Map
Chain of Plk1-Map interaction (P53350 whole entry): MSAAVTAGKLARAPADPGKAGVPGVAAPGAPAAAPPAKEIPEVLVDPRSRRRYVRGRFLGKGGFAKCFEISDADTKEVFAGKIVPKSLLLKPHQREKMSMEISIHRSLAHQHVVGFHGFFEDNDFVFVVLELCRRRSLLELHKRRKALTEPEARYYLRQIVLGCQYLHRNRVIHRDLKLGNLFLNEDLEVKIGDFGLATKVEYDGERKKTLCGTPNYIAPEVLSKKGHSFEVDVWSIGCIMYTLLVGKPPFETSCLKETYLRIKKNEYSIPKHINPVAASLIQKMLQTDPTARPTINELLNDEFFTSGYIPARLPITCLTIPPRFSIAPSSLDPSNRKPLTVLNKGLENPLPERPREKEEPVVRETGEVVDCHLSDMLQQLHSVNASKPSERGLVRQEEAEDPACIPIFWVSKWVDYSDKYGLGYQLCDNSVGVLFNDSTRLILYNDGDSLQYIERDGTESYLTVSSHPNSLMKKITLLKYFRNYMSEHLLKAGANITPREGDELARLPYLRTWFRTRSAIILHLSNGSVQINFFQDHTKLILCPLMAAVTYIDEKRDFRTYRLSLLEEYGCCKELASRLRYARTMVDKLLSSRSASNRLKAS
Experimental: After cell lysis, GFP-Plk1 was immunoprecipitated and co-purified Map-Luc was measured by luminescence following addition of the luciferase substrate, coelenterazine.
Half a million stably transfected Map205-RLucII/GFP10-Plk1 cells in Tyrode solution were seeded per well in a 96-well plate and allowed to settle for 30 min at 37 °C. […] Plates were then centrifuged at 4 °C at 3000 rpm for 5 minutes to pellet cells. Cells were then lysed with the IP buffer (20 mM Tris pH 7.5, 150 mM NaCl, 2 mM EGTA, 0.5% NP-40, 1 mM DTT, PMSF, aprotinin and leupeptin) and incubated on ice for 20 minutes. Plates were centrifuged again at 4 °C at 3400 rpm for 10 minutes, and the soluble fraction was transferred into a new 96-well plate. Note that 10 μl of this fraction was transferred in white 96-well plates from which the luminescence was read as a measure of the input amount of cell lysate for the co-IP. GFP-Plk1 was immunoprecipitated by adding 0.35 μl of anti-GFP antibody (Invitrogen). Plates were sealed and incubated on a rotator at 4 °C for 30 minutes. Then, 4 μl of pre-washed protein A magnetic beads (Invitrogen) were added to each well. Plates were sealed and incubated at 4 °C for 1h30. The extracts + beads were then transferred in a 96-well PCR plates and beads were washed 3 times with the IP buffer using a magnetic 96-well rack. The fourth wash was done in Tyrode solution, then beads were re-suspended with it and transferred in a white 96-well plate. […] Tyrode was also added to the plates containing the input fraction, then Coelenterazine h was added to the wells, and enhanced luminescence was read as described above.

[7] = tested on: mitosis; settings: cited from earlier work
[8] = tested on: PBD; design: method as in PMID 19033445; settings: cited from earlier work
[9] = tested on: HeLa cells; test: mitotic defect phenotypes by immunofluorescence; assay type: cell-based; settings: 10 μM, 7 h
Experimental: HeLa cells were treated with these compounds along with the known PBD inhibitors PPG, TQ, Poloxin and the KD inhibitor BI2536 as controls, and then stained against α-Tubulin, pericentrin (a centrosome marker) and DNA (Fig. 2D). In all cases, there was a marked increase in the frequency of disorganized spindles compared with DMSO-treated control cells. This is expected as Plk1 plays multiple roles in spindle assembly and maintenance. […] Cpd 69, an analog of compound 122, induced a similar phenotype at lower concentrations (data not shown). This phenotype was not seen after treatment with BI2536.
For the mitotic defect phenotypes, 25 200 HeLa cells were plated on poly-L-lysine coated round cover slips in 24-well plates. The day after, cells were treated for 7 hours, and then washed with PHEM buffer at 37 °C before fixation in PHEM buffer containing 4% formaldehyde for 20 minutes at 37 °C. Cells were washed three times with TBS-tween 0.1% and plate was kept overnight at 4 °C. Next steps were followed as previously described except that coverslips were incubated in a dark wet chamber with antibodies. Anti-pericentrin (diluted 1:1000; Abcam), anti-α-tubulin DM1A (diluted 1:500; Sigma-Aldrich), Alexa Fluor 488 anti-rabbit and Texas-Red anti-mouse (diluted 1:200; Invitrogen) were used. Coverslips were mounted on slide using Vectashield media containing DAPI (Vector Laboratories).
Images shown in Fig. 2D were acquired on an AxioImager microscope (Carl Zeiss) with a 100x oil objective (NA 1.4 DICIII) and an AxioCam HRM camera (Carl Zeiss) using AxioVision software (Carl Zeiss).

| IC50 ([1]; FP - IC50 (μM), Table S3) | activity in the FP assay ([1]; SAR) | alkylated residues very near the phosphopeptide binding site [4] | residues of the PBD found alkylated ([4]; 2.5 mM TQ, 2.5 mM Cpd 161 or 250 μM Poloxin, 3 hours) | SMILES | time to completion of reaction with amino-protected cysteine [2] | time to completion of reaction with amino-protected lysine [2] | mobility shift of the PBD in SDS-PAGE [3] | disruption of the PBD-Map interaction in FP [5] | IC50 ([1]; IC50 in FP, GST-PBD367-603 38 nM, 1 h pre-incubation, FITC-phosphopeptide 10 nM, Fig. 4C) | Average-Beads (mean luminescence) ([6]; 10-25 μM, 2 h) | Relative Luminescence Unit ([6]; mean divided by maximum mean of the compounds) | Luminescence on beads, duplicate wells ([6]; raw data, 10-25 μM, 2 h) | concentrations impacting mitosis [7] | concentrations active in vitro [8] | 2 > pericentrin foci (percentage of cells) [9] | Disorganized spindles (percentage of cells) [9] |
| --- | --- | --- | --- | --- | --- | --- | --- | --- | --- | --- | --- | --- | --- | --- | --- | --- |
| 8.3 ± 2.6 µM | showed the same activity as Cpd 16 | His489; also recorded: Lys492 | cysteines, lysines and histidines | C=CS(=O)(=O)c1cc(C(F)(F)F)cc(C)n1 [Cpd 161, 2-methyl-4-(trifluoromethyl)-6-(vinylsulfonyl) pyridine] | approximately 10 minutes | approximately 10 minutes | appeared higher in the gel, a few kDa above the protein treated with DMSO alone | – | – | – | – | – | – | – | – | – |
| – | – | – | – | O=c1c(O)cccc2cc(O)c(O)c(O)c12 [PPG, purpurogallin, reference compound] | – | – | – | disrupted the PBD-Map interaction | 126 µM | 301,042 | 0.351 | 290,044 and 312,040 | high micromolar concentrations | low micromolar concentrations | 7 ± 4% | 41 ± 6% |
